Data taken from paper PMC3198402 (PLoS ONE, 2011).
Where no end group is shown, it is not given here.

Experiments:
HLA-A*02:01 = HLA-A*02:01 (Homo sapiens, UniProt P04439, D140Y/D185E/D98H/E176V/E277Q/G131W/G231S/I119V/I121R/I166T/I218V/L300P/L318F/N151K/N90K/P208A/P217A/Q86G/Q94H/R138H/R169H/T345S); assay: biochemical; type: binding
HLA-A*24:03 = HLA-A*24:03 (Homo sapiens, UniProt P04439, D101N/D140Y/D185E/E176V/F33S/G103R/G107R/I119L/I121M/I306V/K335N/L105A/L180Q/L300P/N151K/N90K/Q86E/Q94H/R106L/R138H/R89G/T104I/T345S/V100E/Y123F); assay: biochemical; type: binding

YMPSVVETL [Peptide 14607] gave a Kd (HLA-A*02:01) of 1 nM.
With MALVAFLRF [Peptide 14610] the Kd (HLA-A*24:03) was 13 nM.
Sequence SMVNGVVKL [Peptide 14605] has a Kd (HLA-A*02:01) of 25 nM.
Work on TLYAVATTV [Peptide 14606] yielded a Kd (HLA-A*02:01) of 1 nM.
PLNEGIMAV [Peptide 14600] was tested, and the Kd (HLA-A*02:01) was 48 nM.
For SMVNGVVRL [Peptide 14599], the Kd (HLA-A*02:01) was 2 nM.
GFMNEDHWF [Peptide 14622] was tested, and the Kd (HLA-A*24:03) was 17 nM.
GFLNEDHWF [Peptide 14615] showed a Kd (HLA-A*24:03) of 34 nM.
In the case of ILTDGPERV [Peptide 14602], the Kd (HLA-A*02:01) is reported as 4 nM.
Work on KMDIGVPLL [Peptide 14598] yielded a Kd (HLA-A*02:01) of 1 nM.
Work on VLNPYMPTV [Peptide 14604] yielded a Kd (HLA-A*02:01) of 1 nM.
WYMWLGARF [Peptide 14613] was tested, and the Kd (HLA-A*24:03) was 19 nM.
With LLLTLLATV [Peptide 14597] the Kd (HLA-A*02:01) was 43 nM.
For WYGMEIRPL [Peptide 14612], the Kd (HLA-A*24:03) was 119 nM.
In the case of TYGWNIVKL [Peptide 14623], the Kd (HLA-A*24:03) is reported as 76 nM.
